What all share (assay type): functional
The test system of one assay is DU-145. As to the kind of experiment: Cytotoxicity against human DU145 cells by SRB assay. (In general: Sulforhodamine B stains cellular protein and so reports cell mass.)
In the next assay the test system is LNCaP. As to the kind of experiment: Cytotoxicity against human LNcaP cells by SRB assay.
Another assay concerns SK-OV-3. As to the kind of experiment: Cytotoxicity against human SK-OV-3 cells by SRB assay.
Assay [1] in a line: Cytotoxicity against human IGROV cells by SRB assay.
Assay [2] is described as follows: Cytotoxicity against human ecteinascidin-743-resistant IGROV-ET cells by SRB assay.
Another assay relates to SK-BR-3. As to the kind of experiment: Cytotoxicity against human SK-BR3 cells by SRB assay.
A further assay has as its system SK-MEL-28. As to the kind of experiment: Cytotoxicity against human SK-MEL-28 cells by SRB assay.
A short description of assay [3]: Cytotoxicity against human HMEC1 cells by SRB assay. To be noted: HMEC-1.
The test system of a further assay is A549. As to the kind of experiment: Cytotoxicity against human A549 cells by SRB assay.
In another assay the test system is K562. As to the kind of experiment: Cytotoxicity against human K562 cells by SRB assay.
Another assay deals with PANC-1. In words: Cytotoxicity against human PANC1 cells by SRB assay.
For another assay, the system named is HT-29. As to the kind of experiment: Cytotoxicity against human HT29 cells by SRB assay.
The subject of assay [4] is LoVo. In words: Cytotoxicity against human LOVO cells by SRB assay.
Assay [5] has as its system LoVo. In words: Cytotoxicity against human doxorubicin-resistant LOVO cells by SRB assay.
Assay [6] relates to HeLa. In words: Cytotoxicity against human HeLa cells by SRB assay.
Assay [7] deals with HeLa. As to the kind of experiment: Cytotoxicity against human aplidin-resistant HeLa cells by SRB assay.

Consider `CCCCCCCCC/C(C)=C\C(=O)NCCc1c[nH]c2ccccc12` [GRANULATAMIDE A], for which the GI50 (as a rule, the concentration giving 50% growth inhibition) was found to be 1.7 µM with DU-145; 4.7 µM in the assay on LNCaP; 11.6 µM with SK-OV-3; 6.7 µM in assay [1]; 12.7 µM in assay [2]; 2.7 µM in the assay on SK-BR-3. The GI50 was 3.9 µM in the assay with SK-MEL-28; 6.2 µM in assay [3]; 6.7 µM in the assay with A549; 6.8 µM in the assay with K562; 10.4 µM in the assay on PANC-1; 2.2 µM with HT-29. The GI50 with LoVo [4] stood at 10.5 µM; in the assay with LoVo [5] it was 12 µM.
Take `CCCCCCC/C(C)=C/C(C)=C\C(=O)NCCc1c[nH]c2ccccc12` [GRANULATAMIDE B]: the GI50 with DU-145 came to 7.7 µM; in the assay on LNCaP, 3.5 µM; in assay [1], 8.2 µM; in [2], 6.7 µM; in the assay with SK-BR-3, 6 µM; with SK-MEL-28 it was 10.6 µM. Moreover, the GI50 with A549 was 8.9 µM; in the assay on K562 it was 4.3 µM; with PANC-1, 6.5 µM; in the assay with HT-29, 13.8 µM; in the assay with LoVo [4] it was 8.6 µM; with LoVo [5], 10 µM. Besides, the GI50 in the assay on HeLa [6] was determined as 9.7 µM; with HeLa [7], 9 µM.

Source of the values: ChEMBL document CHEMBL1157329, “Granulatamides A and B, cytotoxic tryptamine derivatives from the soft coral Eunicella granulata” (2006).
